# Source: patent US20170007615A1, “Antibacterial Compounds” (priority 2014, published 2017)
# Read-outs that look alike come from different tables or passages of the source.
# Columns and labels:
# [1] = tested on: E. cloaceae drug resistant clinical isolates; test: Antibacterial activity (MIC) against drug resistant clinical isolates, alone and with PMBN; format: cell-based; settings: for MIC: read-out: MIC Compound alone
# [2] = tested on: B. cepacia (ATCC 25416); test: Antibacterial activity (MIC), alone and with colistin; format: cell-based, Burkholderia cepacia
# [3] = tested on: P. aeruginosa (ATCC 27853); test: microbe, parasite or virus in culture; settings: Pseudomonas aeruginosa, ATCC27853, read-out: MIC Compound alone
# [4] = tested on: E. cloaceae (ATCC 13047)
# [5] = tested on: F. philomiragia (ATCC 25015); settings: Table 9
# [6] = tested on: E. cloaceae (ATCC 13047); test: microbe, parasite or virus in culture; settings: Enterobacter cloacae, ATCC13047, read-out: MIC Compound alone
# [7] = tested on: P. aeruginosa (MMX 1497) colistin-resistant strain; test: Antibacterial activity (MIC) against colistin-resistant strains, alone and with colistin; format: cell-based
# [8] = tested on: A. baumannii drug resistant clinical isolates; test: Antibacterial activity (MIC) against drug resistant clinical isolates, alone and with PMBN; format: cell-based; settings: for MIC: Acinetobacter baumannii, read-out: MIC Compound alone
# [9] = tested on: A. baumannii (ATCC 19606); test: microbe, parasite or virus in culture; settings: Acinetobacter baumannii, ATCC19606, read-out: MIC Compound alone
# [10] = tested on: F. philomiragia (ATCC 25015); test: microbe, parasite or virus in culture; settings: Francisella philomiragia, ATCC25015, read-out: MIC Compound alone
# [11] = tested on: K. pneumonia colistin-resistant strains; test: microbe, parasite or virus in culture; format: cell-based; settings: for MIC: Klebsiella pneumoniae
# [12] = tested on: P. aeruginosa drug resistant clinical isolates; test: Antibacterial activity (MIC) against drug resistant clinical isolates, alone and with PMBN; format: cell-based; settings: for MIC: Pseudomonas aeruginosa, read-out: MIC Compound alone
# [13] = tested on: A. baumannii colistin-resistant strains; test: microbe, parasite or virus in culture; format: cell-based; settings: for MIC: Acinetobacter baumannii
# [14] = tested on: A. baumannii (ATCC 19606); settings: Table 4
# [15] = tested on: E. coli (ATCC 25922); test: microbe, parasite or virus in culture; settings: Escherichia coli
# [16] = tested on: E. coli (ATCC 25922)
# [17] = tested on: E. coli drug resistant clinical isolates; test: Antibacterial activity (MIC) against drug resistant clinical isolates, alone and with PMBN; format: cell-based; settings: for MIC: Escherichia coli, read-out: MIC Compound alone
# [18] = tested on: E. coli colistin-resistant strains; test: microbe, parasite or virus in culture; format: cell-based; settings: for MIC: Escherichia coli
# [19] = tested on: P. aeruginosa (ATCC 27853); settings: Table 5
structure (smiles),measurement,setting,value
"CCNC(=O)Nc1nc2cc(-c3cnc([C@H](C)O)nc3)cc(-c3ccccn3)c2s1 [Example 23 (WO2013/138860), 1-ethyl-3-[5-[2-[(1S)-1-hydroxyethyl]pyrimidin-5-yl]-7-(2-pyridyl)-1,3-benzothiazol-2-yl]urea]",MIC of Compound (μg/ml) in the presence of PMBN (128 μg/ml),[1]; E. cloaceae (MMX 6087),2 µg/mL
same,MIC,[1]; E. cloaceae (MMX 6087),> 64 µg/mL
same,MIC of Compound (μg/ml) in the presence of PMBN (128 μg/ml),[1]; E. cloaceae (MMX 6093),0.5 µg/mL
same,MIC,[1]; E. cloaceae (MMX 6093),> 16 µg/mL
same,MIC of Compound (μg/ml) in the presence of PMBN (128 μg/ml),[1]; E. cloaceae (MMX 6095),8 µg/mL
same,MIC,[1]; E. cloaceae (MMX 6095),> 64 µg/mL
same,MIC of Compound (μg/ml) in the presence of PMBN (128 μg/ml),[1]; E. cloaceae (MMX 6304),1 µg/mL
same,MIC,[1]; E. cloaceae (MMX 6304),> 16 µg/mL
same,MIC,"[2]; Burkholderia cepacia, ATCC25416, read-out: MIC Compound alone",> 64 µg/mL
same,MIC of Compound (μg/ml) in the presence of colistin (2 μg/ml),"[2]; Table 8, colistin non-inhibitory",8 µg/mL
same,MIC,[3],> 64 µg/mL
same,MIC of Compound (μg/ml) in the presence of PMBN (128 μg/ml),[4]; Table 6,0.5 µg/mL
same,MIC Compound alone,[4]; Table 7,>64 µg/mL
same,MIC of Compound (μg/ml) in the presence of colistin (2 μg/ml),"[4]; Table 7, colistin non-inhibitory",<=0.12 μg/ml
same,MIC of Compound (μg/ml) in the presence of PMBN (32 μg/ml),[5],2 µg/mL
same,MIC,[6],> 64 µg/mL
same,MIC of Compound (μg/ml) in the presence of colistin (2 μg/ml),[7],4 µg/mL
same,MIC,"[7]; Pseudomonas aeruginosa, read-out: MIC Compound alone",> 64 µg/mL
same,MIC of Compound (μg/ml) in the presence of PMBN (128 μg/ml),[8]; A. baumannii (MMX 4454),0.5 µg/mL
same,MIC of Compound (μg/ml) in the presence of PMBN (128 μg/ml),[8]; A. baumannii (MMX 6331),0.25 µg/mL
same,MIC,[8]; A. baumannii (MMX 4454),2 µg/mL
same,MIC,[8]; A. baumannii (MMX 6331),> 64 µg/mL
same,MIC,[9],4 µg/mL
same,MIC,[10],> 16 µg/mL
same,MIC of Compound (μg/ml) in the presence of colistin (2 μg/ml),[11]; K. pneumonia colistin-resistant strain #1,0.25 µg/mL
same,MIC of Compound (μg/ml) in the presence of colistin (2 μg/ml),[11]; K. pneumonia colistin-resistant strain #2,0.25 µg/mL
same,MIC of Compound (μg/ml) in the presence of colistin (2 μg/ml),[11]; K. pneumonia colistin-resistant strain #3,0.12 µg/mL
same,MIC,"[11]; read-out: MIC Compound alone, K. pneumonia colistin-resistant strain #1",1 µg/mL
same,MIC,"[11]; read-out: MIC Compound alone, K. pneumonia colistin-resistant strain #2",1 µg/mL
same,MIC,"[11]; read-out: MIC Compound alone, K. pneumonia colistin-resistant strain #3",2 µg/mL
same,MIC of Compound (μg/ml) in the presence of PMBN (128 μg/ml),[12]; P. aeruginosa (MMX3007),0.25 µg/mL
same,MIC of Compound (μg/ml) in the presence of PMBN (128 μg/ml),[12]; P. aeruginosa (MMX3022),0.25 µg/mL
same,MIC of Compound (μg/ml) in the presence of PMBN (128 μg/ml),[12]; P. aeruginosa (MMX3025),0.12 µg/mL
same,MIC of Compound (μg/ml) in the presence of PMBN (128 μg/ml),[12]; P. aeruginosa (NCTC13437),0.25 µg/mL
same,MIC,"[12]; NCTC13437, P. aeruginosa (NCTC13437)",> 64 µg/mL
same,MIC,[12]; P. aeruginosa (MMX3007),> 64 µg/mL
same,MIC,[12]; P. aeruginosa (MMX3022),> 64 µg/mL
same,MIC,[12]; P. aeruginosa (MMX3025),> 64 µg/mL
same,MIC of Compound (μg/ml) in the presence of colistin (2 μg/ml),[13]; A. baumannii colistin-resistant strain #1,0.015 µg/mL
same,MIC of Compound (μg/ml) in the presence of colistin (2 μg/ml),[13]; A. baumannii colistin-resistant strain #2,0.03 µg/mL
same,MIC of Compound (μg/ml) in the presence of colistin (2 μg/ml),[13]; A. baumannii colistin-resistant strain #3,<=0.008 μg/ml
same,MIC,"[13]; read-out: MIC Compound alone, A. baumannii colistin-resistant strain #1",≤ 0.03 µg/mL
same,MIC,"[13]; read-out: MIC Compound alone, A. baumannii colistin-resistant strain #2",4 µg/mL
same,MIC,"[13]; read-out: MIC Compound alone, A. baumannii colistin-resistant strain #3",≤ 0.03 µg/mL
same,MIC of Compound (μg/ml) in the presence of PMBN (128 μg/ml),[14],0.25 µg/mL
same,MIC,"[15]; ATCC25922, read-out: MIC Compound alone, Table 1",4 µg/mL
same,MIC,"[15]; ATCC25922, read-out: MIC Compound alone, Table 2",4 µg/mL
same,MIC,"[15]; ATCC25922, read-out: MIC Compound alone, Table 3",4 µg/mL
same,MIC,"[15]; ATCC25922, read-out: MIC Compound alone, Table 12",> 2 µg/mL
same,MIC of Compound (μg/ml) in the presence of PMBN (128 μg/ml),"[16]; Table 1, (b) No effect",0.06 µg/mL
same,MIC of Compound (μg/ml) in the presence of Colistin (1 μg/ml),"[16]; Table 2, colistin sub-inhibitory",1 µg/mL
same,MIC of Compound (μg/ml) in the presence of PMB (0.5 μg/ml),"[16]; Table 3, PMB sub-inhibitory",1 µg/mL
same,MIC of Compound (μg/ml) in the presence of PMBN (32 μg/ml),"[16]; Table 12, (b) No significant effect",0.12 µg/mL
same,MIC of Compound (μg/ml) in the presence of PMBN (128 μg/ml),[17]; E. coli (MMX 1312),≦0.008 μg/ml
same,MIC of Compound (μg/ml) in the presence of PMBN (128 μg/ml),[17]; E. coli (MMX 2232),≦0.008 μg/ml
same,MIC,[17]; E. coli (MMX 1312),> 64 µg/mL
same,MIC,[17]; E. coli (MMX 2232),> 64 µg/mL
same,MIC of Compound (μg/ml) in the presence of colistin (2 μg/ml),[18]; E. coli colistin-resistant strain #1,2 µg/mL
same,MIC of Compound (μg/ml) in the presence of colistin (2 μg/ml),[18]; E. coli colistin-resistant strain #2,1 µg/mL
same,MIC of Compound (μg/ml) in the presence of colistin (2 μg/ml),[18]; E. coli colistin-resistant strain #3,1 µg/mL
same,MIC of Compound (μg/ml) in the presence of colistin (2 μg/ml),[18]; E. coli colistin-resistant strain #26,1 µg/mL
same,MIC of Compound (μg/ml) in the presence of colistin (2 μg/ml),[18]; E. coli colistin-resistant strain #43,1 µg/mL
same,MIC,"[18]; read-out: MIC Compound alone, E. coli colistin-resistant strain #1",4 µg/mL
same,MIC,"[18]; read-out: MIC Compound alone, E. coli colistin-resistant strain #2",4 µg/mL
same,MIC,"[18]; read-out: MIC Compound alone, E. coli colistin-resistant strain #3",8 µg/mL
same,MIC,"[18]; read-out: MIC Compound alone, E. coli colistin-resistant strain #26",8 µg/mL
same,MIC,"[18]; read-out: MIC Compound alone, E. coli colistin-resistant strain #43",4 µg/mL
same,MIC of Compound (μg/ml) in the presence of PMBN (128 μg/ml),[19],<=0.008 μg/ml
